Source: patent publication US20100209931A1, “Compositions for Identifying Novel Compositions for the Treatment of Disease and Methods of Using Same” (priority 2009, published 2010)
“Also recorded” adds a separate entry of the source.

Columns and labels:
[1] = test system: erg6Δ ira2Δ cells; assay: 96-well plate growth assay, erg6Δ ira2Δ strain; assay type: cell-based, Saccharomyces cerevisiae; conditions: for sensitivity of growth to compound: erg6Δ ira2Δ, 96-well plate growth assay, optical density, 30° C.
[2] = test system: cells lacking IRA2; assay: growth of cells lacking IRA2, 96-well plates; assay type: cell-based, Saccharomyces cerevisiae
[3] = test system: erg6Δ cells; assay: 96-well plate growth assay, erg6Δ strain; assay type: cell-based, Saccharomyces cerevisiae
[4] = test system: erg6Δ iralΔ ira2Δ; assay: 96-well plate growth assay, erg6Δ ira1Δ ira2Δ strain; conditions: genotype erg6Δ iralΔ ira2Δ; OD 595 nm after 24 hours
Experimental: Wild type yeast cells (MLY41 a strain derived from the Σ11278b background) and cells having the genotypes shown in Table 2 are grown overnight in SC media, 75 μL of culture at a starting optical density of 0.1 are added to a 96 well plate containing 75 μL of SC media with twice the desired final concentration of the compound of Formula I in 1% DMSO. Plates are incubated in a humidified 30° C. chamber and scanned on an optical density plate reader at 595 nm after 24 hours. […] Strains are treated as described above, and the growth of the culture is monitored for 24 hours at the indicated intervals. The points represent the mean of three wells per condition.

[5] = test system: MPNST cell lines; assay: growth of MPNST cell lines; assay type: cell-based, human
[6] = test system: erg6Δ ira2Δ cells; assay: growth on solid agar media, serial dilutions spotted; conditions: SC plates with compound, three days at 30° C.

**Q.** What does the source list for N=C(N)SCc1cn(-c2ccccc2)nc1-c1cccc(Br)c1 [Formula II]?
**A.** sensitivity of growth to compound [1]: differential sensitivity; Effect of Compound of Formula II ([1]; genotype ira2Δ, erg6Δ, OD 595 nm after 24 hours): Inhibition at 10 uM and 50 uM; growth of cells lacking IRA2 ([2]; FIG. 7): Growth inhibition; Effect of Compound of Formula II ([3]; genotype erg6Δ, OD 595 nm after 24 hours): Inhibition at 50 uM; Effect of Compound of Formula II (inhibition at concentration) [4]: Inhibition at less than 10 uM

**Q.** How did the “sensitivity of cells lacking ERG6 and IRA2” value ([1]; 50 μM PD98059) turn out when COc1cccc(-c2cc(=O)c3ccccc3o2)c1N [PD98059] was run?
**A.** The value was “sensitive”.

**Q.** And the “sensitivity of cells lacking ERG6 and IRA2” value ([1]; 25 μL (so in the source) PD98059, 24 hours)?
**A.** The value was “less sensitive”.

**Q.** What about the “sensitivity of growth to compound” value [1] of the same compound?
**A.** The value was “sensitized; also recorded: increased sensitivity”.

**Q.** What about the “growth in MPNST lines” value [5] of the same compound?
**A.** Its value is “inhibiting growth”.

**Q.** And the “selective suppression of growth of NF1-/- MPNST cell line relative to NF1+/+ MPNST line” value ([5]; NF1−1− MPNST cell line relative to NF1+/+ MPNST line)?
**A.** Its value is “selectively suppress growth”.

**Q.** What about the “sensitivity of growth on agar media” value [6] of the same compound?
**A.** Its value is “increased sensitivity”.

**Q.** What about the “sensitivity of growth to compound” value ([3]; erg6Δ alone, 96-well plate growth assay) of the same compound?
**A.** Its value is “not sensitive”.

**Q.** With CC[C@@]1(O)C(=O)OCc2c1cc1n(c2=O)Cc2cc3ccccc3nc2-1 [camptothecin] as the compound, how does the “sensitivity of growth on agar media” value [6] read?
**A.** Its value is “differential sensitivity; also recorded: sensitizes”.

**Q.** With CO[C@H]1C[C@@H]2CC[C@@H](C)[C@@](O)(O2)C(=O)C(=O)N2CCCC[C@H]2C(=O)O[C@H]([C@H](C)C[C@@H]2CC[C@@H](O)[C@H](OC)C2)CC(=O)[C@H](C)/C=C(\C)[C@@H](O)[C@@H](OC)C(=O)[C@H](C)C[C@H](C)/C=C/C=C/C=C/1C [rapamycin] as the compound, how does the “growth inhibition of cells lacking IRA2 by rapamycin alone” value ([2]; rapamycin dose used in combination, 24 hours) read?
**A.** Its value is “does not inhibit”.
